Activity calls are given as the source filed them. The calls are words filed in the database; no cut-off is given here.
Experiments:
[1] = target: T1, Peroxisome proliferator-activated receptor delta (Homo sapiens) (UniProt Q03181); experiment: Transactivation of human PPARdelta at 10 uM
T1 sequence (whole entry): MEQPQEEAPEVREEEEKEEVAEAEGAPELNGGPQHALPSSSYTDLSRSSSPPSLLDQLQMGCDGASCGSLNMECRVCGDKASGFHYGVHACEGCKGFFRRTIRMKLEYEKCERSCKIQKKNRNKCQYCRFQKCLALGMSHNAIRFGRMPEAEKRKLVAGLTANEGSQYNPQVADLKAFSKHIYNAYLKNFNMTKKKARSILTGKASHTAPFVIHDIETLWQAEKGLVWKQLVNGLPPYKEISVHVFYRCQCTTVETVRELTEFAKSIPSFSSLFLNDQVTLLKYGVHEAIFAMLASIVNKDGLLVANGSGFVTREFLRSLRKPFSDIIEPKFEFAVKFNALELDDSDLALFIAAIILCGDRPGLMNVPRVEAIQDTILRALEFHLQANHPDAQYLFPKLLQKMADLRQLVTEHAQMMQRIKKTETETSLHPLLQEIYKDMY

[2] = target: T2, Peroxisome proliferator-activated receptor alpha (Homo sapiens) (UniProt Q07869); experiment: Transactivation of human Gal4-fused PPARalpha LBD expressed in African green monkey COS7 cells after 24 hrs by luciferase reporter gene assay relative to WY14643; type: cell-based
T2 sequence (whole entry): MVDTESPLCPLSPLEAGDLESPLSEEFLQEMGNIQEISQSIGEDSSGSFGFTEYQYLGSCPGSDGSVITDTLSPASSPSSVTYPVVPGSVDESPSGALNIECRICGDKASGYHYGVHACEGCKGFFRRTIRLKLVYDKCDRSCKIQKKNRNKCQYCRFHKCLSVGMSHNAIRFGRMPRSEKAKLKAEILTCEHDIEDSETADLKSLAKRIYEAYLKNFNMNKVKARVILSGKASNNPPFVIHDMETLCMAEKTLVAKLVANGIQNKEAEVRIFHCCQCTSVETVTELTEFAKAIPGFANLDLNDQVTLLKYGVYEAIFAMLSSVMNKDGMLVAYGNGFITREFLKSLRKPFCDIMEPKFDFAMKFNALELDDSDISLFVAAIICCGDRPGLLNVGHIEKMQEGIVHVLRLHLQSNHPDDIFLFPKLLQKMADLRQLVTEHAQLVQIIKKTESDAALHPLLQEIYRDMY

[3] = target: T3, Peroxisome proliferator-activated receptor alpha (Homo sapiens, UniProt Q07869); experiment: Transactivation of human Gal4-fused PPARalpha LBD expressed in African green monkey COS7 cells after 24 hrs by luciferase reporter gene assay; type: cell-based
T3 sequence (Q07869 whole entry): T2 sequence (whole entry)

[4] = target: T4, Peroxisome proliferator-activated receptor gamma (Homo sapiens, UniProt P37231); experiment: Transactivation of human Gal4-fused PPARgamma LBD expressed in African green monkey COS7 cells after 24 hrs by luciferase reporter gene assay; type: cell-based
T4 sequence (P37231 whole entry): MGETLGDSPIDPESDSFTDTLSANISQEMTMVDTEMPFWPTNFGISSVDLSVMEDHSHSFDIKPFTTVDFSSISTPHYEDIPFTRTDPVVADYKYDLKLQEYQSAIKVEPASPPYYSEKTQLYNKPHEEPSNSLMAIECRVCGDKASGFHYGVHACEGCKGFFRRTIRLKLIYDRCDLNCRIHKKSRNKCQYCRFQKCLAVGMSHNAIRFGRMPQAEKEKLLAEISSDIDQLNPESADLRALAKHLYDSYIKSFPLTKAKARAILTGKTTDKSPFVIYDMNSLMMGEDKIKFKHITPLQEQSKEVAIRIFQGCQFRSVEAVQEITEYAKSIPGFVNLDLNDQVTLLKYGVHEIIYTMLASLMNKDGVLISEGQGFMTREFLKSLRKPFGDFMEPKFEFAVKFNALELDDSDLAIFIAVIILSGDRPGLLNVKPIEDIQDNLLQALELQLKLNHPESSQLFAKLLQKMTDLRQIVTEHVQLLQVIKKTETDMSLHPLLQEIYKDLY

[5] = target: T5, NAD-dependent protein deacetylase sirtuin-1 (Homo sapiens) (UniProt Q96EB6); experiment: Activation of recombinant human SIRT1 at 10 uM using C-terminal AMC labeled Arg-His-Lys-Lys (Ac) as substrate after 30 mins by FLUOR DE LYS fluorescent assay relative to control
T5 sequence (whole entry): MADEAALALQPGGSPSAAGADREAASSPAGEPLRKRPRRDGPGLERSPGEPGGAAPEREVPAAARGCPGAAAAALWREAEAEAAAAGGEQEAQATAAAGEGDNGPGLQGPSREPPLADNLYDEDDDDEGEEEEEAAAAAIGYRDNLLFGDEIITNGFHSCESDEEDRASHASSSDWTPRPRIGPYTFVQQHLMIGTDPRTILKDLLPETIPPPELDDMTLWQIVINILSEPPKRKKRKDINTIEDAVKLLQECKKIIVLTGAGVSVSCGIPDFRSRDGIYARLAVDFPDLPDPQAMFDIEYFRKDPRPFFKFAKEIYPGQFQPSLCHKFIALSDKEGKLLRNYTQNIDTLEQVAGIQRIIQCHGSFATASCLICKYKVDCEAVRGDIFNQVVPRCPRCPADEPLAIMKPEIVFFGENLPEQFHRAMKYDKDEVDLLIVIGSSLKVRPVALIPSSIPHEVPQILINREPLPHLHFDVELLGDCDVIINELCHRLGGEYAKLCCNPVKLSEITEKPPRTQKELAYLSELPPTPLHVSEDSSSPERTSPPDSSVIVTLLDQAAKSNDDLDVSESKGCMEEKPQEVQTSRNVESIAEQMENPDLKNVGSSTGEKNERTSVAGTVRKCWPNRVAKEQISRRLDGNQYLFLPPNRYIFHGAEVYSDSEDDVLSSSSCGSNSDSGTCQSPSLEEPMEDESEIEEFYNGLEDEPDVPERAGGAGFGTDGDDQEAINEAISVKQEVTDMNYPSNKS

[6] = Modulation of SGK1 mRNA expression in HCCD cells at 20 uM after 24 hrs by RT-PCR method relative to control; type: functional, Homo sapiens
Mus musculus [7] = experiment: Anti-diabetic activity in ob/ob mouse assessed as change in serum triglyceride levels at 8.4 uM/kg administered via oral gavage daily for 4 days measured on day 5 relative to control; type: functional
Mus musculus [8] = experiment: Anti-diabetic activity in ob/ob mouse assessed as change in serum glucose levels at 8.4 uM/kg administered via oral gavage daily for 4 days measured on day 5 relative to control; type: functional
Mus musculus [9] = experiment: Anti-diabetic activity in ob/ob mouse assessed as change in serum insulin levels at 8.4 uM/kg administered via oral gavage daily for 4 days measured on day 5 relative to control; type: functional
Mus musculus [10] = experiment: Toxicity in ob/ob mouse assessed as change in body weight at 8.4 uM/kg administered via oral gavage daily for 4 days measured on day 5 relative to control; type: organism-based; conditions: in vivo, 96 h, 8.4 µmol/kg

Row | Compound | Activity [1] | Emax [2] [%] | EC50 [3] [nM] | EC50 ([4]; read-out: EC50) [nM] | Activity [5] [%] | Activity [6] [%] | Activity (Mus musculus [7]) [%] | Activity (Mus musculus [8]) [%] | Activity (Mus musculus [9]) [%] | Activity (Mus musculus [10]) [%] | EC50 [4]
1 | COc1cc(/C=C/C(=O)c2ccc3c(c2)sc(=O)n3CCOc2ccc(CC(OCC(F)(F)F)C(=O)O)cc2)cc(OC)c1 (centres undefined) | inactive | 36 | 10000 | 1000 | 24 | 820 | -18 | -14 | 28 | 142 | –
2 | CCOC(Cc1ccc(OCCn2c(=O)sc3cc(/C=C/c4cc(OC)cc(OC)c4)ccc32)cc1)C(=O)NC (centres undefined) | inactive | 0 | 10000 | < 10 | 17 | -43 | -29 | -14 | -36 | 111 | –
3 | CCOC(=O)C(Cc1ccc(OCCn2c(=O)sc3cc(C(=O)/C=C/c4cc(O)cc(O)c4)ccc32)cc1)OCC(F)(F)F (centres undefined) | inactive | 12 | 10000 | 30 | 24 | 180 | -8 | -5 | 11 | 75 | –
4 | CCOC(=O)C(Cc1ccc(OCCn2c(=O)sc3cc(/C=C/c4cc(O)cc(O)c4)ccc32)cc1)OCC(F)(F)F (centres undefined) | inactive | 149 | 10000 | 80 | -28 | 83 | -25 | -40 | -41 | 56 | –
5 | COc1cc(/C=C/c2ccc3c(c2)sc(=O)n3CCOc2ccc(CC(OCC(F)(F)F)C(=O)O)cc2)cc(OC)c1 (centres undefined) | inactive | 170 | 300 | 20 | -4 | 89 | -23 | -36 | -61 | 81 | –
6 | CCOC(=O)C(Cc1ccc(OCCn2c(=O)sc3cc(/C=C/c4cc(OC)cc(OC)c4)ccc32)cc1)OCC (centres undefined) | inactive | 149 | 2000 | < 10 | 13 | -23 | -35 | -36 | -28 | 79 | –
7 | CCOC(=O)C(Cc1ccc(OCCn2c(=O)sc3cc(C(=O)/C=C/c4cc(O)cc(O)c4)ccc32)cc1)OCC (centres undefined) | inactive | 42 | 10000 | 20 | 0 | 243 | -28 | -30 | -4 | 91 | –
8 | CCOC(Cc1ccc(OCCn2c(=O)sc3cc(/C=C/c4cc(OC)cc(OC)c4)ccc32)cc1)C(=O)O (centres undefined) | inactive | 494 | 1000 | < 10 | – | – | -56 | -42 | -33 | 192 | –
9 | CCOC(Cc1ccc(OCCn2c(=O)sc3cc(/C=C/c4cc(O)cc(O)c4)ccc32)cc1)C(=O)O (centres undefined) | inactive | 29 | 10000 | 1000 | 92 | -39 | -52 | -45 | -40 | 110 | –
10 | CCOC(=O)C(Cc1ccc(OCCn2c(=O)sc3cc(C(=O)/C=C/c4cc(OC)cc(OC)c4)ccc32)cc1)OCC (centres undefined) | inactive | 0 | 10000 | 30 | 2 | -14 | -34 | -25 | -7 | 112 | –
11 | CCOC(=O)C(Cc1ccc(OCCn2c(=O)sc3cc(/C=C/c4cc(O)cc(O)c4)ccc32)cc1)OCC (centres undefined) | inactive | 76 | 10000 | 10 | 59 | 134 | -19 | -35 | -37 | 49 | –
12 | CCOC(Cc1ccc(OCCn2c(=O)sc3cc(/C=C/c4cc(OC)cc(OC)c4)ccc32)cc1)C(N)=O (centres undefined) | inactive | 35 | 1000 | < 10 | -12 | -43 | -32 | -27 | -26 | 158 | –
13 | CCOC(=O)C(Cc1ccc(OCCn2c(=O)sc3cc(C(=O)/C=C/c4cc(OC)cc(OC)c4)ccc32)cc1)OCC(F)(F)F (centres undefined) | inactive | 21 | 10000 | 200 | 0 | -53 | -24 | 2 | 17 | 93 | –
14 | CCOC(=O)C(Cc1ccc(OCCn2c(=O)sc3cc(/C=C/c4cc(OC)cc(OC)c4)ccc32)cc1)OCC(F)(F)F (centres undefined) | inactive | 136 | 10000 | 50 | -7 | -62 | -3 | -11 | -14 | 61 | –
15 | O=C(O)C(Cc1ccc(OCCn2c(=O)sc3cc(/C=C/c4cc(O)cc(O)c4)ccc32)cc1)OCC(F)(F)F (centres undefined) | inactive | 100 | 10000 | 200 | 128 | -57 | -39 | -40 | -43 | 32 | –
16 | Cc1cccc(Nc2cc(Cl)nc(SCC(=O)O)n2)c1C [PIRINIXIC ACID] | – | – | – | – | – | – | – | – | – | – | Not Active

— ChEMBL document CHEMBL4138119, “Anti-diabetic activity of fused PPARγ-SIRT1 ligands with limited body-weight gain by mimicking calorie restriction and decreasing SGK1 expression” (Eur J Med Chem, 2017)
